The experiment has as its system Factor VII. Kind of experiment: In vivo FVII knockdown by FVII siRNA lipid formulations (chromogenic Factor VII assay, serum 24 h after i.v. dosing). As to conditions: female C57Bl/6 mice, i.v. tail vein, cationic lipid/DSPC/cholesterol/PEG-lipid 40/10/40/10 with FVII siRNA, no unit at the values, method gives ED50 in mg/kg. Here is the method:
Cationic lipid containing particles were made using the preformed vesicle method. Cationic lipid, DSPC, cholesterol and PEG-lipid were solubilised in ethanol at a molar ratio of 40/10/40/10, respectively. The lipid mixture was added to an aqueous buffer (50 mM citrate, pH 4) with mixing to a final ethanol and lipid concentration of 30% (vol/vol) and 6.1 mg/mL respectively and allowed to equilibrate at room temperature for 2 min before extrusion. The hydrated lipids were extruded through two stacked 80 nm pore-sized filters (Nuclepore) at 22° C. using a Lipex Extruder (Northern Lipids, Vancouver, BC) until a vesicle diameter of 70-90 nm, as determined by Nicomp analysis, was obtained. This generally required 1-3 passes.
The FVII siRNA (solubilised in a 50 mM citrate, pH 4 aqueous solution containing 30% ethanol) was added to the vesicles, pre-equilibrated to 35° C., at a rate of ˜5 mL/min with mixing. […] The final encapsulated siRNA-to-lipid ratio was determined after removal of unencapsulated siRNA using size-exclusion spin columns or ion exchange spin columns.
Test formulations were initially assessed for their FVII knockdown in female 7-9 week old, 15-25 g, female C57Bl/6 mice at 0.1, 0.3, 1.0 and 5.0 mg/kg with 3 mice per treatment group. […] Mice were weighed and the appropriate dosing volumes calculated (10 μl/g body weight). […]

Each structure is given as a SMILES string.

Compound `CCCCC/C=C\C/C=C\CCCCCCCCC(CCCCCCCC/C=C\C/C=C\CCCCC)OC(=O)CCCN(C(C)C)C(C)C` [DLin-M-C3-DIPA] returned an ED50 (dose resulting in a 50% reduction in plasma FVII levels compared to control animals) of 4.5 mg/kg.

As for `CCCCC/C=C\C/C=C\CCCCCCCCC(CCCCCCCC/C=C\C/C=C\CCCCC)OC(=O)CCCN(CC)CC` [DLin-M-C3-DEA], the ED50 (dose resulting in a 50% reduction in plasma FVII levels compared to control animals) was determined as 0.3 mg/kg.
